# From patent US20050170345A1, “Neuroglobin is up-regulated by and protects neurons from hypoxic-ischemic injury” (priority 2001, published 2005)
# “Also recorded” adds a separate entry of the source. Read-outs that look alike come from different tables or passages of the source. {Fluorescein} = fluorescein label
# Tests used:
# Ngb protein = Ngb protein expression in HN33 cells (Western blot); assay type: cell-based, mouse; details: HN33 cells; for effect on induction of Ngb expression by hemin (Western blot): 1 h pretreatment then 50 μM hemin 24 h, LY83583 1 μM, KT5823 8 μM, GF109203X 10 μM, PD98059 20 μM
# Description: (§1) HN33 cells were cultured as described (Lee et al. (1990) J Neurosci. 10: 1779-1787; Shi et al. (1998) J Neurochem., 70:1035-1044; Jin et al. (2000) Proc Nati Acad Sci USA., 97:10242-10247). Cells were plated at 4×10^5 cells/well onto uncoated, 6-well plastic culture dishes in Dulbecco's modified Eagle's medium containing 10% (v/v) fetal bovine serum, 100 units/ml of penicillin and 100 μg/ml of streptomycin, and maintained at 37° C. in humidified 95% air/5% CO2. Cells were treated with hemin (typically 50 μM) or 8-Br-cGMP (10 μM) for up to 3 days, without daily replacement. To suppress sGC or PKG activity, cells were pretreated for 1 hour with inhibitors before adding other reagents.
# (§2) Cells were washed twice in PBS, and whole-cell extracts were prepared by adding 10 volumes of 1× sample buffer containing 2% SDS, 100 mM dithiothreitol, 60 mM Tris (pH 6.8) and 10% glycerol, and boiled for 5 minutes. Protein concentrations were determined using Bradford Protein Assays (Bio-Rad, Hercules, Calif.); 30 μg of protein was analyzed by 12% or 15% SDS-PAGE and transferred to Immuno-Blot PVDF membranes (Bio-Rad). Membranes were probed with affinity-purified anti-Ngb antibody, which was produced by immunizing with a synthetic peptide corresponding to amino-acids 35-50 (NH2-CLSSPEFLDHIRKVML-COOH, (SEQ ID NO:11) of mouse Ngb (Sun et aL (2001 Proc Natl Acad Sci USA. 98:15306-15311),and the signal was detected with Boehringer Mannheim chemiluminescence blotting kits. Differences in protein expression on Western blots were quantified using a GS-710 calibrated imaging densitometer and Quantity One software (Bio-Rad).
# Ngb [1] = assay: Hypoxia-induced Ngb expression in HN33 cells pretreated with protein kinase inhibitors (Western blot); assay type: cell-based, mouse; details: inhibitor 1 hour then hypoxia (95% N2/5% CO2) 20 hours
# Description: FIGS. 10A and 10B show the effects of protein kinase inhibitors on hypoxia-induced Ngb expression. HN33 cells were treated with protein kinase inhibitors at the indicated concentrations for 1 hour, and then exposed to hypoxia (95% N2/5% CO2) for 20 hours. Western blotting was used to detect Ngb protein expression (FIG. 10A), which was quantified by computer densitometry (FIG. 10B). Data are representative blots (top) or means±SEM (bottom) from 3 experiments. *P<0.05 for drug treatment relative to hypoxia alone.
# as §2
# Ngb [2] = assay: Ngb expression in cultured cortical neurons treated with hypoxia mimetics or other stressors (Western blot); assay type: cell-based, mouse
# Ngb mRNA = Ngb mRNA expression in HN33 cells (RT-PCR, quantitative RT-PCR, Northern blot); assay type: cell-based, mouse; details: HN33 cells; for effect on hemin-induced Ngb expression at the mRNA level (quantitative RT-PCR): 1 h pretreatment then 50 μM hemin 24 h, LY83583 1 μM, KT5823 8 μM
# Description: as §1
# RT-PCR and Northern blot analyses were carried out as described previously (Zhu and Zhang (1999) Biochem Biophys Res Commun., 258:87-93). Briefly, total RNA from treated and untreated cells was extracted using a RNeasy Mini Kit (QIAGEN Operon, Valencia, Calif.), and DNA-free total RNA (2 μg per sample) was reverse-transcribed into first-strand cDNA using the Reverse Transcription System and Oligo-dT12-18 (GIBCO-BRL, Rockville, Md.) (Id.). Sequences of the primers used for PCR amplification were: Ngb forward, 5′ CTCTGGAACATGGCACTGTC 3′ (nt 135-154, SEQ ID NO:7); Ngb reverse, 5′ GCACTGGCTCGTCTCTTACT 3′ (nt 547-528, SEQ ID NO:8); β-actin forward, 5′ CACAGGCATTGTGATGGACTC 3′ (nt 524-544, SEQ ID NO:9); β-actin reverse, 5′ GCTCAGGAGGAGCAATGATCT 3′ (nt 582-563, (SEQ ID NO:10). Primers were designed based on the published sequences of these genes and were synth esized by QIAGEN Operon. All PCR primer pairs gave rise to only one discrete band of the expected size. PCR reactions were carried out in a total volume of 25 μl containing 2 μl cDNA, 1×PCR buffer (Boehringer Mannheim, Mannheim, FRG), 200 μM dNTPs, 0.6 U Taq DNA polymerase (Boehringer Mannheim), and 0.2 μM primers. The optimal conditions for amplification (temperature and cycle number) were determined experimentally according to previously published procedures (Id.). Different ratios of Ngb to b-actin primer pairs were tested to ensure that Ngb and b-actin were amplified with similar efficiency, and a kinetic study was undertaken to establish the number of cycles sufficient to detect both Ngb and b-actin without reaching saturation for either. The parameters chosen for PCR amplification were 95° C. for 1 minute, 57° C. for 45 seconds, 72° C. for 1 minute for 25-30 cycles, and a final incubation at 72° C. for 10 minutes. PCR products were separated on 1.2% agarose gels, visualized by ethidium bromide staining, and quantified using a ChemiImage System (Alpha Innotech Corporation, San Leandro, Calif.).
# For Northern blotting, 15 μg of total RNA from each sample was fractionated on 1% formaldehyde/agarose gels and transferred to Hybond-N nylon membranes (Amersham Pharmacia, Piscataway, N.J.). Filters were hybridized with probes for Ngb MRNA, and β-actin mRNA at 68° C. in hybridization buffer (Clontech, Palo Alto, Calif.). ^32P-radiolabeled DNA probes were synthesized using cDNA obtained from RT-PCR amplification.
# Quantitative RT-PCR analysis was carried out as described previously.8 PCR reactions were carried out in a total volume of 25 μl containing 1 μI cDNA, 1×PCR buffer (Boehringer Mannheim), 200 μM dNTPs, 0.6 U Taq DNA polymerase (Boehringer Mannheim), two pairs of primers (one pair for the Ngb gene, another for the b-actin gene used as an internal control). The optimal conditions for amplification (the proportion between the two pairs of primers, temperatures, and cycle numbers) were determined experimentally according to previously established procedures.8 PCR products were separated on 1.2% agarose gels, visualized by ethidium bromide staining, and quantified using a ChemiImage System (Alpha Innotech Corporation).
# [3] = tested on: vascular endothelial growth factor; details: aortic smooth muscle cells; cited from earlier work
# [4] = tested on: 17-20 kDa caspase-3 cleavage product; assay: Caspase-3 cleavage product immunofluorescence in ODN-transfected cortical neurons; assay type: cell-based, mouse; details: fluorescence microscopy, hypoxic cortical neurons
# Description: Cultures were fixed with 4% paraformaldehyde and incubated over night at 4° C. with one or more of the following primary antibodies: rabbit polyclonal anti-Ngb (1:200), mouse monoclonal anti-NeuN (1:200, Chemicon), and rabbit polyclonal anti-17-20 kDa caspase-3 cleavage product (1:100, New England Biolabs). The secondary antibodies (all 1:200) were fluorescein isothiocyanate-conjugated goat anti-rabbit or anti-mouse IgG (Vector) and rhodamine-conjugated donkey anti-rabbit IgG (Jackson ImmunoResearch). Controls for non-specific binding included omitting primary (FIG. 1C) or secondary antibodies. In addition, in some cultures, nuclei were labeled with 4′,6-diamidino-2-phenylindole (DAPI) or DNA strand breaks were labeled with the Klenow fragment of DNA polymerase I (Roche) followed by rhodamine avidin D (Vector), as described (Jin et al. (1999) J Neurochem 72: 1204-1214). Fluorescence signals were detected with a Nikon E800 epifluorescence microscope using excitation/emission wavelengths of 535/565 nm for rhodamine (red), 470/505 nm for fluorescein isothiocyanate (green) and 360/400 nm for DAPI (blue). Results were recorded with a Magnifire digital color camera (Optronics). […]
compound,measurement,setting,value
COc1cccc(-c2cc(=O)c3ccccc3o2)c1N [PD98059],effect on induction of Ngb expression by hemin (Western blot),Ngb protein,no significant effect
same,effect on hypoxic induction of Ngb,Ngb [1],blocked
[Cl-].[Cl-].[Co+2] [CoCl2],Ngb expression,Ngb [2],increased Ngb expression
Nc1nc2c(nc(Br)n2[C@@H]2O[C@@H]3COP(=O)(O)O[C@H]3[C@H]2O)c(=O)[nH]1 [8-Br-cGMP],increase in Ngb mRNA expression,"Ngb mRNA; 10 μM 8-Br-cGMP, 2-24 h",3- to 4 fold
same,inductive effect of hemin on neuroglobin reproduced by the agent,Ngb protein,mimicked
same,increase in Ngb protein expression,"Ngb protein; 10 μM 8-Br-cGMP, 2-24 h",2- to 2.5 fold
same,effect on hypoxic induction of vascular endothelial growth factor,[3],suppress
"5′-ATG GAG CGC CCG GA-3′ (sense ATGGAGCGCCCGGA; DNA, 5' {Fluorescein}, backbone and methylation of C not given here) [sense ODN]",transfected cells co-expressing the 17-20 kDa caspase-3 cleavage product,[4],few
CN[C@@H]1C[C@H]2O[C@@](C)([C@@H]1OC)n1c3ccccc3c3c4c(c5c6ccccc6n2c5c31)C(=O)NC4 [staurosporine],Ngb expression,"Ngb [2]; cultured cortical neurons treated 24 h, 300 μM CoCl2 (Co2+), 100 μM Dfx, 0.1 μM staurosporine, 500 μM SNP, Western blot",did not increase Ngb expression; also recorded: no change
COC(=O)[C@@]1(OC)C[C@H]2O[C@]1(C)n1c3ccccc3c3c4c(c5c6ccccc6n2c5c31)C(=O)N(C)C4 [KT5823],effect on hemin-induced Ngb expression at the mRNA level (quantitative RT-PCR),Ngb mRNA,significantly inhibited
same,effect on induction of Ngb expression by hemin (Western blot),Ngb protein,attenuated; also recorded: significantly diminished
same,effect on hypoxic induction of Ngb,Ngb [1],not blocked
CN(C)CCCn1cc(C2=C(c3c[nH]c4ccccc34)C(=O)NC2=O)c2ccccc21 [GF109203X],effect on induction of Ngb expression by hemin (Western blot),Ngb protein,no significant effect
O=C1C(Nc2ccccc2)=CC(=O)c2ncccc21 [LY83583],effect on hemin-induced Ngb expression at the mRNA level (quantitative RT-PCR),Ngb mRNA,significantly inhibited
same,effect on induction of Ngb expression by hemin (Western blot),Ngb protein,attenuated; also recorded: significantly diminished
same,effect on hypoxic induction of Ngb,Ngb [1],not blocked
